Experimental data from ChEMBL document CHEMBL3046170, “Docking, synthesis, and pharmacological investigation of novel substituted thiazole derivatives as non-carboxylic, anti-inflammatory, and analgesic agents” (Med Chem Res, 2013).

Assays:
Rattus norvegicus [1] = assay: Anti-inflammatory activity in carrageenan-induced paw edema Wistar albino Rattus norvegicus (rat) model assessed as change in paw volume at 25 mg/kg, po administered 1 hr prior to carrageenan-challenge measured after 2 hr by plethysmometer (reference value: 1.110 +/-0.07 ml); type: functional
Rattus norvegicus [2] = assay: Anti-inflammatory activity in Wistar albino Rattus norvegicus (rat) assessed as inhibition of carrageenan-induced paw edema at 25 mg/kg, po administered 1 hr prior to carrageenan-challenge measured after 3 hr by plethysmometer; type: functional
Rattus norvegicus [3] = assay: Anti-inflammatory activity in Wistar albino Rattus norvegicus (rat) assessed as inhibition of carrageenan-induced paw edema at 25 mg/kg, po administered 1 hr prior to carrageenan-challenge measured after 1 hr by plethysmometer; type: functional
Rattus norvegicus [4] = assay: Anti-inflammatory activity in carrageenan-induced paw edema Wistar albino Rattus norvegicus (rat) model assessed as change in paw volume at 25 mg/kg, po administered 1 hr prior to carrageenan-challenge measured after 1 hr by plethysmometer (reference value: 0.900 +/-0.03 ml); type: functional
Mus musculus = assay: Analgesic activity in Albino Mus musculus (mouse) assessed as inhibition of acetic acid-induced abdominal writhings at 25 mg/kg, po administered 50 min prior to acetic acid injection measured after 10 min; type: functional; conditions: Abdomen
Rattus norvegicus [5] = assay: Anti-inflammatory activity in carrageenan-induced paw edema Wistar albino Rattus norvegicus (rat) model assessed as change in paw volume at 25 mg/kg, po administered 1 hr prior to carrageenan-challenge measured after 3 hr by plethysmometer (reference value: 1.200 +/-0.08 ml); type: functional
Rattus norvegicus [6] = assay: Anti-inflammatory activity in Wistar albino Rattus norvegicus (rat) assessed as inhibition of carrageenan-induced paw edema at 25 mg/kg, po administered 1 hr prior to carrageenan-challenge measured after 2 hr by plethysmometer; type: functional
Rattus norvegicus [7] = assay: Gastrointestinal toxicity in Wistar albino Rattus norvegicus (rat) stress model assessed as ulcerogenicity index at 25 mg/kg/day, po for 4 days measured on day 5; type: organism-based; design: route oral; conditions: in vivo, 96 h
Rattus norvegicus [8] = assay: Gastrointestinal toxicity in Wistar albino Rattus norvegicus (rat) stress model assessed as ulcerogenicity index at 25 mg/kg/day, po for 4 days measured on day 5 relative to diclofenac sodium; type: organism-based; design: route oral; conditions: in vivo, 96 h

SMILES | Activity (Rattus norvegicus [1]) | inhibition in vivo at 25 mg/kg (Rattus norvegicus [2]) | inhibition in vivo at 25 mg/kg (Rattus norvegicus [3]) | Activity (Rattus norvegicus [4]) | inhibition in vivo at 25 mg/kg (Mus musculus) | Activity (Rattus norvegicus [5]) | inhibition in vivo at 25 mg/kg (Rattus norvegicus [6]) | UI (Rattus norvegicus [7]) | Activity (Rattus norvegicus [8])
Nn1c(-c2csc(-c3ccccc3)n2)n[nH]c1=O | 0.979 mL | 19% | 15.2% | 0.844 mL | 19.7% | 1.074 mL | 23.1% | – | –
Nc1cc(-c2ccccc2)nn1C(=O)c1csc(-c2ccccc2)n1 | 0.873 mL | 55.2% | 42.1% | 0.851 mL | 60.1% | 0.942 mL | 60.5% | 0.62 | 10%
CCOC(=O)c1cnn(C(=O)c2csc(-c3ccccc3)n2)c1N | 0.74 mL | 60.3% | 45.1% | 0.721 mL | 61.2% | 0.79 mL | 63% | 0.6 | 10%
c1ccc(-c2nc(-c3nnco3)cs2)cc1 | 0.962 mL | 27% | 24.2% | 0.842 mL | 18.1% | 1.052 mL | 31.5% | – | –
CN(C)CCSc1nnc(-c2csc(-c3ccccc3)n2)o1 | 0.904 mL | 25.9% | 22.7% | 0.787 mL | 18.6% | 0.999 mL | 31.1% | – | –
c1ccc(-c2nc(-c3nnn[nH]3)cs2)cc1 | 0.885 mL | 40.4% | 30.8% | 0.825 mL | 16.5% | 0.935 mL | 38.1% | – | –
O=C([O-])Cc1ccccc1Nc1c(Cl)cccc1Cl.[Na+] [DICLOFENAC SODIUM] | 0.8 mL | 54.9% | 40.6% | 0.762 mL | 58% | 0.85 mL | 56.7% | 4.67 | –
S=c1oc(-c2csc(-c3ccccc3)n2)nn1CN1CCCCC1 | 0.812 mL | 55.5% | 44.8% | 0.764 mL | 58.7% | 0.862 mL | 57.4% | 0.54 | 10%
O=c1[nH]nc(-c2csc(-c3ccccc3)n2)o1 | 0.885 mL | 48.4% | 34.8% | 0.825 mL | 42.2% | 0.935 mL | 49.1% | 0.44 | 10%
Sc1nnc(-c2csc(-c3ccccc3)n2)o1 | 0.78 mL | 50.8% | 37.9% | 0.735 mL | 58.1% | 0.84 mL | 53.8% | 0.52 | 10%
c1ccc(-c2nc(-c3nnc(SCCN4CCOCC4)o3)cs2)cc1 | 0.995 mL | 21.6% | 14.5% | 0.864 mL | 21.8% | 1.076 mL | 23.5% | – | –
Nc1nnc(-c2csc(-c3ccccc3)n2)o1 | 1.012 mL | 21.4% | 18.2% | 0.88 mL | 20.3% | 1.105 mL | 25.5% | – | –
